Measurements taken from US12565468B2, “Processes and intermediates for the preparations of Carboprost and Carboprost Tromethamine, and Carboprost Tromethamine prepared therefrom” (CHIROGATE INTERNATIONAL INC., priority 2021, dated 2026).

Experiments:
Assay type in all cases: physicochemical
[1] = Hygroscopicity: water content by Karl Fischer titration after exposure to 99% RH at 25° C.
Experimental: On the other hand, the hygroscopicity of the high melting point Carboprost Tromethamine crystal prepared from Example 10 (Method A) and the low melting point Carboprost Tromethamine crystal prepared from Example 10 (Method B) was measured. The samples were placed in glass vial with 99% RH at 25° C. for 3 hours, and the water content of the samples were measured by Karl Fischer titration, as shown in Table 6.

[2] = Stability of Carboprost Tromethamine crystal on storage at 25° C./60% RH and 5° C. (HPLC purity and impurities)
Source text: (§1) The high melting point Carboprost Tromethamine Crystal is very stable at room temperature, even at higher temperature, so that the formation of degradation impurities can be effectively avoided.

[3] = Stability of Carboprost Tromethamine crystal at 80° C. (HPLC purity and impurities)
Source text: as §1

SMILES: CCCCC[C@](C)(O)/C=C/[C@@H]1[C@@H](C/C=C\CCCC(=O)O)[C@@H](O)C[C@H]1O [Example 10 (Method A), 2-amino-2-(hydroxymethyl)propane-1,3-diol; (Z)-7-((1R,2R,3R,5S)-3,5-dihydroxy-2-((S,E)-3-hydroxy-3-methyloct-1-en-1-yl)cyclopentyl)hept-5-enoate]
- Water Content (%) ([1]; 25° C./99% RH/1 h): 1.509%
- Water Content (%) ([1]; 25° C./99% RH/2 h): 3.354%
- Water Content (%) ([1]; 25° C./99% RH/3 h): 5.881%
- Rate of water absorption (in words) ([1]; 99% RH at 25° C. for 3 hours, compared to the low melting point crystal): relatively low rate of water absorption
- Water Content (%) ([1]; Original): 0.3657%
- 15-epi ([2]; 5° C., 1 month): 0.28%
- Purity ([2]; 5° C., 1 month): 99.72%
- Total Impurities ([2]; 5° C., 1 month): 0.28%
- 15-epi ([2]; 5° C., 12 months): 0.25%
- Purity ([2]; 5° C., 12 months): 99.75%
- Total Impurities ([2]; 5° C., 12 months): 0.25%
- 15-epi ([2]; 5° C., 18 months): 0.25%
- Purity ([2]; 5° C., 18 months): 99.75%
- Total Impurities ([2]; 5° C., 18 months): 0.25%
- 15(R)-epimer ([2]; 25° C./60% RH, 1 month): 0.27%
- Purity ([2]; 25° C./60% RH, 1 month): 99.71%
- Total Impurities ([2]; 25° C./60% RH, 1 month): 0.29%
- 15(R)-epimer ([2]; 25° C./60% RH, 6 months): 0.25%
- Purity ([2]; 25° C./60% RH, 6 months): 99.75%
- Total Impurities ([2]; 25° C./60% RH, 6 months): 0.25%
- 15(R)-epimer ([2]; Control): 0.25%
- Purity ([2]; Control): 99.75%
- Total Impurities ([2]; Control): 0.25%
- Stability (in words) ([2]; at room temperature, even at higher temperature): very stable
- Stability (in words) ([2]; treated at 20° C. for 6 months, 5° C. for 18 months, and 80° C. for 3 days): very stable
- Stability (in words) ([2]; treated at 20° C. for 6 months, PC for 18 months, and 80° C. for 3 days): stable
- 15-epi ([3]; 80° C., 1 days): 0.20%
- Purity ([3]; 80° C., 1 days): 99.79%
- Total Impurities ([3]; 80° C., 1 days): 0.21%
- 15-epi ([3]; 80° C., 3 days): 0.21%
- Purity ([3]; 80° C., 3 days): 99.78%
- Total Impurities ([3]; 80° C., 3 days): 0.22%
- 15-epi ([3]; Control): 0.21%
- Purity ([3]; Control): 99.79%
- Total Impurities ([3]; Control): 0.21%

SMILES: CCCCC[C@](C)(O)/C=C/[C@@H]1[C@@H](C/C=C\CCCC(=O)O)[C@@H](O)C[C@H]1O [Example 10 (Method B), 2-amino-2-(hydroxymethyl)propane-1,3-diol; (Z)-7-((1R,2R,3R,5S)-3,5-dihydroxy-2-((S,E)-3-hydroxy-3-methyloct-1-en-1-yl)cyclopentyl)hept-5-enoate, reference compound]
- Water Content (%) ([1]; 25° C./99% RH/1 h): 2.236%
- Water Content (%) ([1]; 25° C./99% RH/2 h): 5.45%
- Water Content (%) ([1]; 25° C./99% RH/3 h): 7.513%
- Water Content (%) ([1]; Original): 0.3303%
